We go through 5 compounds from US20200261470A1, “COMBINATION TREATMENT WITH ANTIBODY-DRUG CONJUGATES AND PARP INHIBITORS” (IMMUNOGEN, INC., priority 2016, published 2020).

One may read the IC50 as the concentration at which inhibition is half-maximal.

One assay relates to HEL-luc cells. Description: Proliferation measured with WST-8 reagent, HEL-luc cells. Type of assay: cell-based, human. The conditions noted are these: for IC50: Homo sapiens, HELluc cell line, single agent, read-out: IC50 values for PARP inhibitors in AML cell lines. As to the method:
(§1) Proliferation was measured following incubation with WST-8 reagent. Synergistic/additive effects were calculated using Compusyn software at varying drug concentrations. Flow cytometry for apoptosis, viability, DNA damage/repair, and cell cycle effects following combination versus single drug treatment were also performed.
(Tetrazolium assays rely on reduction of a dye to a coloured formazan, in cell work by metabolically active cells.)

In the next assay the test system is HL60 cells. Description: Proliferation measured with WST-8 reagent, HL60 cells. The conditions noted are these: Homo sapiens, HL-60; HL60 cell line, single agent; read-out: IC50 values for PARP inhibitors in AML cell lines. Type of assay: cell-based. As for the experimental part:
as §1

Assay [1] deals with human CD33+ AML (HEL-luciferase) xenografts. It is filed as in vivo. The conditions noted are these: IMGN779 15 mcg/kg, olaparib 100 mg/kg, alone or combined.
Experimental: In these experiments, stably transfected luciferase-positive human AML cells (HEL) characterized by high hCD33 expression levels were injected via tail vein into sublethally irradiated 6-8 week old SCID mice. […] In vivo systemic leukemia disease burden was evaluated weekly by small animal bioluminescent imaging. Toxicity was determined by clinical examination and weight measurements throughout the experiment. Overall study endpoints were (a) time to overall morbidity/mortality and/or (b) change in leukemia disease burden as compared with vehicle-treated mice or mice treated with single agent therapy. […] Simple stastical analyses will be performed utilizing the Stat Prism statistical software.
A further assay relates to HEL cells. Description: Cell death after DNA-damaging radiation exposure in the presence of olaparib. It is filed as cell-based, human. The conditions noted are these: graded concentrations of olaparib; 0.5 Gy and 0.75 Gy radiation.
In assay [2] the test system is Human CD33+ AML cell lines (HEL, MV4-11, and HL60). Description: Proliferation by WST-8 reagent with Compusyn synergy analysis, CD33+ AML cell lines. The conditions noted are these: single agent, all CD33+ human AML cell lines tested.
Experimental: Proliferation was measured by WST-8 reagent. Synergistic/additive effects were calculated using Compusyn software. Flow cytometry was performed to assess apoptosis, cell viability, and cell cycle effects.

Take `C[C@]1(c2nc3c(C(N)=O)cccc3[nH]2)CCCN1` [Vellparib, veliparib]: the IC50 in the assay on HEL-luc cells was more than 100 µM; in the assay on HL60 cells, 88 µM.
For `NC(=O)c1cccc2cn(-c3ccc([C@@H]4CCCNC4)cc3)nc12` [Niraparib, niraparib], the IC50 in the assay with HEL-luc cells is 7.3 µM; in the assay on HL60 cells, 2.5 µM.
As for `O=C(c1cc(Cc2n[nH]c(=O)c3ccccc23)ccc1F)N1CCN(C(=O)C2CC2)CC1` [Olaparib, olaparib], in assay [1], the “median overall survival from inoculation” value turned out to be 33.7 days. Besides, in the assay with HEL cells, the “cell death after DNA-damaging radiation exposure” value was “correlation in increase cell death and apoptosis with the increase in concentration of olaparib”. In addition, in assay [2], the “growth inhibition in vitro” value was “dose-dependent grown inhibition”. Besides, the IC50 turned out to be 7.4 µM in the assay with HEL-luc cells and 8.9 µM in the assay on HL60 cells.
For the compound `Cn1ncnc1[C@H]1c2n[nH]c(=O)c3cc(F)cc(c23)N[C@@H]1c1ccc(F)cc1` [Talazoparib, talazoparib], the “relative potency among PARP inhibitors” value in the assay with HEL-luc cells (HEL-luc and HL60 cell lines) is listed as “most potent PARP inhibitor”. The IC50 was 0.4 µM in the assay on HEL-luc cells and 0.2 µM with HL60 cells. Moreover, in the assay with HEL-luc cells (PARP inhibitor 0.8 μM, IMGN779 800 pM, compared with olaparib and niraparib), the “surviving fraction of cells” value is recorded as “greatest decrease in surviving fraction of cells”.
Turning to `CNCc1ccc(-c2[nH]c3cc(F)cc4c3c2CCNC4=O)cc1` [Rucaparib, rucaparib], the IC50 is 39 µM in the assay on HEL-luc cells and 75 µM in the assay with HL60 cells.
